The values that follow come from paper PMC9323797, “4-Substituted Thieno[3,2-d]pyrimidines as Dual-Stage Antiplasmodial Derivatives” (Pharmaceuticals, 2022).

Data set [1] deals with HepG2. Set-up: method as in PMID 25791675. As to conditions: cited from earlier work.
Data set [2] is described as follows: Cytotoxicity on primary simian hepatocytes (DAPI count of host cell nuclei). The following applies: Macaca fascicularis, count of total cell nuclei, mean ± SD of three independent experiments. The class given is cell-based, Macaca fascicularis. As to the method: (§1) Primary simian hepatocytes were isolated from liver segments collected from healthy Macaca fascicularis from CEA, Fontenay aux Roses, France. All hepatocytes were obtained using collagenase perfusion, as previously described, and were immediately cryopreserved. One day before infection, the cryopreserved hepatocytes were thawed at 37 °C and were seeded into collagen-coated (5 µg/cm^2 rat tail collagen I, Invitrogen, Carlsbad, CA, USA) 96-well plate, at a density of 80,000 cells per well. They were cultured at 37 °C in 5% CO2 in William’s E medium (Gibco, Life Technologies, Saint Aubin, France) supplemented with 10% of Fetal Bovine Serum FCIII, 5 × 10^–5 M hydrocortisone hemisuccinate (Serb Laboratories, Paris, France), 5 μg per ml bovine insulin (Sigma Aldrich, St. Louis, MO, USA), 2 mM L-glutamine, and 0.02 U per ml-0.02 μg per ml penicillin-streptomycin (Life Technologies) until infection with sporozoites.
(§2) Sporozoites of P. berghei were re-suspended in the above complete medium used for the hepatocytes culture. Simian hepatocytes were inoculated in 50 μL of complete media with 20,000 P. berghei-sporozoites/well in 96-well plates. The infected culture plates were centrifuged for 10 min at 900× g to allow fast parasite sedimentation onto the target cells and were further incubated with the serial dilution of drugs that were prepared in advance. After 3 h of incubation, cultures were washed and further incubated in a fresh medium containing the appropriate drug concentration, which were changed every 24 h during the study period. Cultured hepatocytes were fixed using 4% paraformaldehyde (PFA) for 15 min at room temperature. Host cell and parasite nuclei were labelled with 4′,6-diamidino-2-phenylindole (DAPI). Upon fixation and immunostaining, cell culture plates were analyzed in order to determine the number and size of the parasites using a Cell Insight High Content Screening platform equipped with the Studio HCS software (Thermo Fisher Scientific, Waltham, MA, USA). The parasite size reduction was calculated on the average object area using the total surface area of each selected object (μm^2). To assess the cell toxicity of drugs for hepatic cultures, fixed plates were further scanned for the DAPI signal representing host nuclei. The analysis was based on counting of total cell nuclei. GraphPad Prism 7 statistical software (GraphPad. Software, San Diego, CA, USA) was used for data analysis and graphing. All values were expressed as means and standard deviations (SD).

Data set [3] has as its system P. falciparum K1. Set-up: method as in PMID 25791675. The following applies: asexual blood stages, K1 strain; cited from earlier work.
Another data set concerns P. berghei. The experiment in a line: Hepatic-stage antiplasmodial evaluation (PbGFP sporozoites in primary simian hepatocytes, high content imaging). It counts as cell-based. The following applies: mean ± SD of three independent experiments.
From the text: P. berghei sporozoites constitutively expressing green fluorescent protein (PbGFP, ANKA strain) were obtained by the dissection of salivary glands from infected Anopheles stephensi mosquitoes bred and infected in the insectary facilities of UMR-S 1135 (CIMI, Paris, France). Infected salivary glands were removed by hand dissection, crushed in a potter, and filtered through a 40 μm filter for sporozoite isolation (Cell Strainer, BD BioSciences, San Jose, CA, USA). The sporozoites were counted using a disposable plastic microscope slide (KOVA).
as §1, §2

The test system of data set [4] is P. falciparum K1. Briefly: Blood-stage antiplasmodial evaluation (SYBR Green I fluorescence, 72 h). The class given is cell-based, Plasmodium falciparum. As to conditions: asexual blood stages, drug-resistant K1 strain, 72 h incubation, mean ± SD of three independent experiments; for EC50: read-out: P. falciparum K1 EC50. How it is done: A K1 culture-adapted P. falciparum strain resistant to chloroquine, pyrimethamine, and proguanil was used in an in vitro culture. It was maintained in a continuous culture, as described previously by Trager and Jensen. Cultures were maintained in fresh A+ human erythrocytes at 2.5% hematocrit in a complete medium (RPMI 1640 with 25 mM HEPES, 25 mM NaHCO3, and 10% of A+ human serum) at 37 °C under a reduced O2 atmosphere (gas mixture: 10% O2, 5% CO2, and 85% N2). Parasitemia was maintained daily between 1 and 3%. The P. falciparum drug susceptibility test was carried out by comparing quantities of DNA in treated and control cultures of parasite in human erythrocytes, according to a SYBR Green I fluorescence-based method using a 96-well fluorescence plate reader. Compounds, previously dissolved in DMSO (final concentration less than 0.5% v/v), were incubated in a total assay volume of 200 μL (RPMI, 2% hematocrit and 0.4% parasitemia) for 72 h in a humidified atmosphere (10% O2 and 5% CO2) at 37 °C, in 96-well flat bottom plates. Duplicate assays were performed for each sample. After incubation, plates were frozen at […] for 24 h. Then, the frozen plates were thawed for 1 h at 37 °C. A total of 15 μL of each sample was transferred to 96-well flat-bottom non-sterile black plates (Greiner Bio-One, Kremsmünster, Austria) already containing 15 μL of the SYBR Green I lysis buffer (2X SYBR Green I, 20 mM Tris base pH 7.5, 20 mM EDTA, 0.008% w/v saponin, 0.08% w/v Triton X-100). Negative control treated by solvents (DMSO or H2O) and positive controls (chloroquine) were added to each set of experiments. Plates were incubated for 15 min at 37 °C and then read on a TECAN Infinite F-200 spectrophotometer with excitation and emission wavelengths at 485 and 535 nm, respectively. The concentrations of compounds required to induce a 50% decrease in parasite growth (EC50 K1) were calculated from three independent experiments.

Data set [5] can be described thus: Cytotoxic evaluation on HepG2 cell line (MTT, 72 h). As to conditions: HepG2 cells (hepatocarcinoma cell line, ATCC HB-8065); human hepatoma cell line HepG2, MTT, 72 h, mean ± SD of three independent experiments. It counts as cell-based, human. As to the method: (§3) The HepG2 cell line (hepatocarcinoma cell line purchased from ATCC, ref HB-8065) was maintained at 37 °C, 5% CO2, with 90% humidity in MEM supplemented with 10% fetal bovine serum, 1% L-glutamine (200 mM), penicillin (100 U/mL), and streptomycin (100 μg/mL) (complete MEM medium). The evaluation of the cytotoxicity of the tested molecules was performed according to the method of Mosmann, with slight modifications. Briefly, 5.103 cells in 100 μL of the complete medium were inoculated into each well of a 96-well plate and incubated at 37 °C in a humidified 5% CO2. After 24 h incubation, 100 μL of medium with various product concentrations dissolved in DMSO (final concentration less than 0.5% v/v) was added and the plates were incubated for 72 h at 37 °C. Triplicate assays were performed for each sample. Each plate well was then microscope-examined for detecting possible precipitate formation before the medium was aspirated from the wells. A total of 100 μL of MTT (3-(4,5-dimethyl-2-thiazolyl)-2,5-diphenyl-2H-tetrazolium bromide) solution (0.5 mg/mL in medium without FCS) was then added to each well. Cells were incubated for 2 h at 37 °C. After this time, the MTT solution was removed and DMSO (100 μL) was added to dissolve the resulting blue formazan crystals. Plates were shaken vigorously (700 rpm) for 10 min. The absorbance was measured at 570 nm, with 630 nm as a reference wavelength using a TECAN Infinite F-200 Microplate Reader. DMSO was used as a blank and doxorubicin (purchased from Sigma Aldrich, St. Louis, MO, USA) was used as a positive control. Cell viability was calculated as a percentage of control (cells incubated without compound). The 50% cytotoxic concentration (CC50) was determined from the dose–response curve by using the TableCurve software 2D v.5.0. CC50 values represent the mean value calculated from three independent experiments.

Data set [6] deals with HepG2. Described as above. The class given is cell-based, human. As to conditions: toxicity on HepG2 versus EC50 against the erythrocytic stage of P. falciparum. As to the method: as §3
In data set [7] the test system is Primary Simian Hepatocytes. Briefly: Cytotoxicity on primary simian hepatocytes (DAPI count of host cell nuclei). It counts as cell-based, Macaca fascicularis. As to conditions: count of total cell nuclei, mean ± SD of three independent experiments. As to the method:
as §1, §2

[8] abbreviates: Plasmodium falciparum, K1, 72 h.

Molecules are shown by their SMILES. Where two headings read alike, the source gives them in different places.

In the case of `Cc1ccc(-c2cc3nc(NC(C)(C)C)[nH]c(=O)c3s2)cc1` [Compound 1, Gamhepathiopine, reference compound], the results for the CC50 (with HepG2 [1]; in data set [2]) were 25.6 ± 3.1 µM and over 200 µM, respectively. Also, the EC50 (in general, the concentration at which the effect is half-maximal) in the data set on P. falciparum K1 [3] was 0.2 ± 0.02 µM; in the data set on P. berghei (Plasmodium berghei, Hepatocyte), 24.3 ± 1.6 µM.
As for `Cc1ccc(-c2cc3nc(NC(C)(C)C)nc(Cl)c3s2)cc1` [Compound 5, N-(Tert-butyl)-4-chloro-6-(p-tolyl)thieno[3,2-d]pyrimidin-2-amine], the “P. falciparum K1 EC50” value in the data set on P. falciparum K1 [4] is recorded as “submicromolar range”. In addition, the CC50 at 72 h in data set [5] came to 16.4 ± 5.4 µM. Further, the selective index in the data set on HepG2 [6] is 54.7. In data set [2], this molecule came in with a CC50 of over 100 µM. Besides, the EC50 was about 15 µM in the data set on P. berghei (Plasmodium berghei, Hepatocyte) and 16.5 ± 8 µM in the data set with P. berghei.
As for `Cc1ccc(-c2cc3nc(NC(C)(C)C)nc(I)c3s2)cc1` [Compound 6, N-(Tert-butyl)-4-iodo-6-(p-tolyl)thieno[3,2-d]pyrimidin-2-amine], in the data set on P. falciparum K1 [4], the “P. falciparum K1 EC50” value is reported as “submicromolar range”. The CC50 at 72 h in data set [5] stood at 29 ± 5.5 µM. Further, the CC50 in data set [2] is over 100 µM. Also, a half-maximal response in the data set with P. berghei (Plasmodium berghei, Hepatocyte) (EC50) required 26.7 ± 5.6 µM.
`Cc1ccc(-c2cc3nc(NC(C)(C)C)nc(N)c3s2)cc1` [Compound 10a, N^2-(Tert-butyl)-6-(p-tolyl)thieno[3,2-d]pyrimidine-2,4-diamine]: the EC50 in the data set with P. falciparum K1 [4] (setting [8]) is under 2 µM; in the data set with P. falciparum K1 [4] it was 1.4 ± 0.6 µM; with P. berghei (Plasmodium berghei, Hepatocyte), 70.7 ± 9.7 µM. For the same molecule, the “P. falciparum K1 EC50” value in the data set on P. falciparum K1 [4] is “micromolar range”. Moreover, the CC50 at 72 h in data set [5] worked out at 12.1 ± 4.1 µM. The molecule further displayed a CC50 in data set [2] of over 50 µM. In addition, the “P. berghei EC50” value with P. berghei is “not active”.
As for `CNc1nc(NC(C)(C)C)nc2cc(-c3ccc(C)cc3)sc12` [Compound 10c, N^2-(tert-butyl)-N^4-methyl-6-(p-tolyl)thieno[3,2-d]pyrimidine-2,4-diamine], the EC50 in the data set with P. falciparum K1 [4] (setting [8]) is 1 ± 0.4 µM; with P. berghei (Plasmodium berghei, Hepatocyte), about 5 µM; with P. berghei, 4.6 ± 5.7 µM. Moreover, the “P. falciparum K1 EC50” value with P. falciparum K1 [4] is “micromolar range”. Besides, in data set [5], the CC50 at 72 h was determined as 3.7 ± 0.6 µM. For the same molecule, in data set [2], the CC50 was found to be 31.5 ± 6.8 µM. Also, in the data set with P. berghei, the “P. berghei EC50” value is “most active”.
Take `CCCNc1nc(NC(C)(C)C)nc2cc(-c3ccc(C)cc3)sc12` [Compound 10d, N^2-(tert-butyl)-N^4-propyl-6-(p-tolyl)thieno[3,2-d]pyrimidine-2,4-diamine]: the EC50 was 1.1 ± 0.2 µM in the data set on P. falciparum K1 [4] (setting [8]); about 5 µM in the data set on P. berghei (Plasmodium berghei, Hepatocyte); 7.1 ± 1.4 µM in the data set with P. berghei. Further, the “P. falciparum K1 EC50” value in the data set with P. falciparum K1 [4] is on record as “micromolar range”. This molecule also showed a CC50 at 72 h in data set [5] of 3.7 ± 0.3 µM. For the same molecule, the CC50 in data set [2] came out at 22 ± 2.8 µM.
As to `Cc1ccc(-c2cc3nc(NC(C)(C)C)nc(NCCCCO)c3s2)cc1` [Compound 10f, 4-((2-(tert-butylamino)-6-(p-tolyl)thieno[3,2-d]pyrimidin-4-yl)amino)butan-1-ol], the EC50 with P. falciparum K1 [4] (setting [8]) is 0.7 ± 0.1 µM; in the data set on P. berghei (Plasmodium berghei, Hepatocyte), about 15 µM; in the data set with P. berghei, 14.1 ± 1.9 µM. The “P. falciparum K1 EC50” value with P. falciparum K1 [4] is “micromolar range”. For the same molecule, the CC50 at 72 h in data set [5] amounted to 2.9 ± 1.1 µM. For the same molecule, the CC50 in data set [2] turned out to be 17.7 ± 1.9 µM.
`COCCNc1nc(NC(C)(C)C)nc2cc(-c3ccc(C)cc3)sc12` [Compound 10g, N^2-(tert-butyl)-N^4-(2-methoxyethyl)-6-(p-tolyl)thieno[3,2-d]pyrimidine-2,4-diamine]: the EC50 with P. falciparum K1 [4] (setting [8]) is 0.8 ± 0.2 µM; in the data set with P. berghei (Plasmodium berghei, Hepatocyte), about 5 µM; with P. berghei it was 6.3 ± 0.2 µM. In the data set with P. falciparum K1 [4], the “P. falciparum K1 EC50” value is reported as “micromolar range”. The molecule also gave a CC50 at 72 h in data set [5] of 3.7 ± 0.9 µM. In data set [2], the CC50 stood at 7.8 ± 2.3 µM. In data set [7], the “Primary Simian Hepatocytes CC50” value is reported as “cytotoxic”.
For the molecule `C[C@H]1c2cccc(O)c2C(=O)C2=C(O)[C@]3(O)C(=O)C(C(N)=O)=C(O)[C@@H](N(C)C)[C@@H]3[C@@H](O)[C@@H]21` [Doxycycline], the EC50 with P. falciparum K1 [3] is 5 µM.
